According to patent publication US8518946B2, “Salts of (R)-7-[3-amino-4-(2,4,5-trifluorophenyl)butanoyl]-3-trifluoromethyl-5,6,7,8-tetrahydroimidazo[1,5-a] pyrazine-1-carboxylic acid, preparation method and medical use thereof” (Jiangsu Hengrui Medicine Co., Ltd., priority 2009, dated 2013):
Read-outs that look alike come from different tables or passages of the source.

How the values were obtained:
DPP-VIII = target: T1, DPP-VIII (Homo sapiens, UniProt Q6V1X1); experiment: DPP-VIII inhibition, Promega DPPIV-Glo Protease Assay; format: biochemical; conditions: read-out: IC50 DPP8
T1 construct: purchased Bioscience 80080
Experimental: (§1) The compounds of the present invention were tested to determine their DPP-IV, DPP-VIII, DPP-IX inhibition activity according to the following methods. The half inhibition concentrations IC50 (the concentration of the test compound showing 50% inhibition to the enzyme activity) of each compound were determined by reaction test and calculation of the mixture of fixed amounts of enzyme and substrate with several different concentrations of the test compounds.
(§2) The compounds of the present invention were tested to determine the DPP-IV, DPP-VIII, DPP-IX inhibition activity in the following tests using Promega DPPIV-Glo™ Protease Assay (Cat No. G8350/G8351) Kit, wherein:
b. DPP-VIII enzyme bought from Bioscience, Catalog no. 80080;
(§3) The preparation procedure of the conventional reagent such as DPPIV-Glo buffer, luciferin reagents needed in the test and the detail operation of the test can refer to the specifications of the kits. The assay was carried out as following steps:
(§4) The tested compounds were dissolved in DMSO to prepare a series of different concentrations of the test compound solution. DPPIV-Glo buffer and the freezing luciferin detection reagent were equilibrated to room temperature. The luciferin detection reagent was dissolved in moderate buffer in a brown flask to form a solution. Then DPP-IV-Glo. was dissolved in ultrapure water to give the appropriate concentration. The substrate solution and the luciferin detection reagent solution were mixed sufficiently in an appropriate ratio (the ratio of the invention is 1:49), and the mixture was layed at room temperature for 30-60 minutes. Tris buffer (2 mM, pH 8.0), the test compounds and DPP-IV (DPP-VIII or DPP-IX) were mixed and then transferred to a 96-well plate. Each test contains double-well of three-well control. The same volume of DMSO was added to the negative control and blank control. Then the 96-well plate was added with mixed solution of luciferin detection reagent and substrate to initiate the reaction. The 96-wells plate was incubated at room temperature on a plate shaker for 40 minutes after sealed. The strength of the fluorescent signal in each well was determined by microplate reader and the inhibition rate to the enzyme of the compound at this concentration was calculated by the formula as following: inhibitory rate: IR=[1−(S−B)/(N−B)]*100% • S: value of the sample • B: value of the blank control • N: value of the negative control
(§5) IC50 of the test compounds can be calculated by the inhibition rate at different concentration.

DPP-IV = target: T2, DPP-IV (Homo sapiens, UniProt P27487); experiment: DPP-IV inhibition, Promega DPPIV-Glo Protease Assay; format: biochemical
T2 construct: purchased Calbiochem 317630
Experimental: as §1, §2
a. DPP-IV enzyme bought from Calbiochem, Catalog no. 317630;
as §3, §4, §5

DPP-IX = target: T3, DPP-IX (Homo sapiens, UniProt Q86TI2); experiment: DPP-IX inhibition, Promega DPPIV-Glo Protease Assay; format: biochemical; conditions: read-out: IC50 DPP9
T3 construct: purchased Bioscience 80090
Experimental: as §1, §2
c. DPP-IX enzyme bought from Bioscience, Catalog no. 80090.
as §3, §4, §5

[1] = Solubility experiment in four systems; format: physicochemical
Experimental: According to the conventional solubility measurement, the solubility of the test samples were determined in four different systems: phosphate buffer solution (PBS, pH=7.4), methanol, 0.1% hydrochloric acid and water.

normal ICR mice = experiment: Hypoglycemic effect, oral glucose tolerance in normal ICR mice; format: in vivo; conditions: 10 mg/kg by gavage, glucose 4 g/kg 15 minutes after administration, 10 mg/kg
Experimental: To observe the effects on oral glucose tolerance of the compounds of Example 1-4 and Example 8-12 in normal ICR mice (SINO-BRITSH SIPPR/BK LAB.ANIMAL LTD., CO), the hypoglycemic effects in vivo have been evaluated using blood-glucose meter to measure and analyze the sugar content of the samples at different time points during 2 hours. The samples were taken from the mouse's tail.
The administration dose was 10 mg/kg, and the blank was administered with water. Both groups contained 5% DMSO.
The mice were administered by gavage. 4 g/kg of 10% glucose solution was administered (0.8 mL to each mice) 15 minutes after administration.
The mice were administered according to above dose (the blank group was administrated with 5% DMSO aqueous solution) and the blood sugar value was measured (−15 minutes).
15 minutes after administration, the mice were administered of 4 g/kg of 20% glucose solution and the values of blood sugar were tested by Roche ACCU-CHEK at 0, 15, 30, 45, 60, 120 minutes.

T3 sequence (Q86TI2 whole entry): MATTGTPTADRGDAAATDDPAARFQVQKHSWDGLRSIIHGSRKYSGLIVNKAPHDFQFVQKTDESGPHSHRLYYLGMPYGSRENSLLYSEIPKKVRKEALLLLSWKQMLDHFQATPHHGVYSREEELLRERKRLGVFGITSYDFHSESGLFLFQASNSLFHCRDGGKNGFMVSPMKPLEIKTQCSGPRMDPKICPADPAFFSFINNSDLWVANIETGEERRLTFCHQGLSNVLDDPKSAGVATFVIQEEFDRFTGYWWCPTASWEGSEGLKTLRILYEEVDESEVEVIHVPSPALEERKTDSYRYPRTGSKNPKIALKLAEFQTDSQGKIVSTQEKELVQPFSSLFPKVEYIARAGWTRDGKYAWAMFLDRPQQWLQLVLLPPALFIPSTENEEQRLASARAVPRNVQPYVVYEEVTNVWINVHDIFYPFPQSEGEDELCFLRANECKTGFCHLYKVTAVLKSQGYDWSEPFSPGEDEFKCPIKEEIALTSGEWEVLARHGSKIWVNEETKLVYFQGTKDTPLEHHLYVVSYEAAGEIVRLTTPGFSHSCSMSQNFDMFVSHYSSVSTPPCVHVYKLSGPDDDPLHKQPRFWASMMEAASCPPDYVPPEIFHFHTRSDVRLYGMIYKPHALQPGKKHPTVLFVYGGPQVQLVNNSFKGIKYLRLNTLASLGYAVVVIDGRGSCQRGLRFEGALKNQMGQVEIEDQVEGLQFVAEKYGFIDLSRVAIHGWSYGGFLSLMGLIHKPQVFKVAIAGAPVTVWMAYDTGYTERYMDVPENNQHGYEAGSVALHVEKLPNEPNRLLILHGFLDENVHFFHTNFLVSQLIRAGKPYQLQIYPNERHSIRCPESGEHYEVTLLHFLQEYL
T1 sequence (Q6V1X1 whole entry): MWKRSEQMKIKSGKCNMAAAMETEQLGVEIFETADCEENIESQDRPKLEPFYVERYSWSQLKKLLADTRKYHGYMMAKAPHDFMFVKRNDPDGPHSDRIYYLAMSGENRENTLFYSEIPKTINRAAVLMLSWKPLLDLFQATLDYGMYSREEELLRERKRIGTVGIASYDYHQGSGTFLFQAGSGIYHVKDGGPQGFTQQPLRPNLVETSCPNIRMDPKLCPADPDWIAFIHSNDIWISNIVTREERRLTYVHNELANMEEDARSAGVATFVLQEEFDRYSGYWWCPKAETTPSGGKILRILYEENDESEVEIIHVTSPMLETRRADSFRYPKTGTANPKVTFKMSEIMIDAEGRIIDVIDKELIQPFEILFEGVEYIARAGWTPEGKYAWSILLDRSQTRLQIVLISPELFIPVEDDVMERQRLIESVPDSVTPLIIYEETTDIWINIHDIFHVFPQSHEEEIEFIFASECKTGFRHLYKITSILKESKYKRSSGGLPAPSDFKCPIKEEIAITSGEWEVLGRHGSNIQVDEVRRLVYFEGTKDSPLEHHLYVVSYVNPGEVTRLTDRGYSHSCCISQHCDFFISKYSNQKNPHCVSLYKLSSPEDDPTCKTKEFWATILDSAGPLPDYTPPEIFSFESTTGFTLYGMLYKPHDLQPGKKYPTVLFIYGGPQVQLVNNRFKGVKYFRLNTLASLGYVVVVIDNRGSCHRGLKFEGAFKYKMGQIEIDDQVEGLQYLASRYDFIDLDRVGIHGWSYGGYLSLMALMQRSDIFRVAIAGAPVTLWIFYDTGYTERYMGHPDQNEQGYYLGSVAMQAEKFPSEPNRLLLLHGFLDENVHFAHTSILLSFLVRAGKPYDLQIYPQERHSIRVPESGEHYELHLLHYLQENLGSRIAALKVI
T2 sequence (P27487 whole entry): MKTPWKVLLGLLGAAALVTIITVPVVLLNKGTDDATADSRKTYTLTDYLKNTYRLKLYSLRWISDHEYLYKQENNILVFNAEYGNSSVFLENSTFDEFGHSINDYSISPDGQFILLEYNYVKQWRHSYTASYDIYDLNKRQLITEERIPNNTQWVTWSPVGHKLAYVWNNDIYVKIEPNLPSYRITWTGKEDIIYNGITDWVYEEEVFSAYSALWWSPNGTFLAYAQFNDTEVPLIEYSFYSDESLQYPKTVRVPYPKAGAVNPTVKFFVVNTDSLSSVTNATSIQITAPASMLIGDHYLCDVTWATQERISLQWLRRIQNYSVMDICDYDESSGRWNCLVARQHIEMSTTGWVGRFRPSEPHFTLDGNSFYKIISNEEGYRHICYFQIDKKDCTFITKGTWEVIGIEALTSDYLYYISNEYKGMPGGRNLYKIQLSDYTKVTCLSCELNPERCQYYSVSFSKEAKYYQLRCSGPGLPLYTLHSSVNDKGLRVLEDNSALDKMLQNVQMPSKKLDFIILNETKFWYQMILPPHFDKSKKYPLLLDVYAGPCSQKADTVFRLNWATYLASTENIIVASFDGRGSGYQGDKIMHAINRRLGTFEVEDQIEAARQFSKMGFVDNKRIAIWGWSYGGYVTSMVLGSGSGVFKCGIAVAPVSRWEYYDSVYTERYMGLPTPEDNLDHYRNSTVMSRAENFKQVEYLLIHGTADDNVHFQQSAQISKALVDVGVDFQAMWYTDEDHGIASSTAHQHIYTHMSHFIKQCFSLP

IC50 (DPP-VIII)	IC50 (DPP-IV)	IC50 (DPP-IX)	solubility ([1]; 0.1% hydrochloric acid, simulated gastric fluid, 0.1% hydrochloric acid, read-out: Solubility Value, 0.1% HCl)	solubility ([1]; methanol, organic solvent or mixture, methanol, read-out: Solubility Value, methanol)	solubility ([1]; phosphate buffer solution (PBS), pH 7.4, aqueous buffer, PBS pH 7.4, read-out: Solubility Value, PBS (pH 7.4))	solubility ([1]; water, read-out: Solubility Value, water)	Solubility Value, 0.1% HCl ([1]; 0.1% hydrochloric acid)	Solubility Value, PBS (pH 7.4) ([1]; PBS pH 7.4)	Solubility Value, methanol ([1]; methanol)	Solubility Value, water ([1]; water)	Structure (SMILES)	Hypoglycemic rate of blood sugar of 30 minutes after administration (normal ICR mice)
80.5 µM	0.025 µM	50.6 µM	101 mg/mL	50.3 mg/mL	60.5 mg/mL	40.2 mg/mL					N[C@@H](CC(=O)N1CCn2c(C(F)(F)F)nc(C(=O)[O-])c2C1)Cc1cc(F)c(F)cc1F.[Li+] [Example 5, Lithium (R)-7-[3-amino-4-(2,4,5-trifluorophenyl)butanoyl]-3-trifluoromethyl-5,6,7,8-tetrahydro-imidazo[1,5-a]pyrazine-1-carboxylate]	
152 µM		136 µM					8.3 mg/mL	0.2 mg/mL	20.1 mg/mL	0.5 mg/mL	N[C@@H](CC(=O)N1CCn2c(C(F)(F)F)nc(C(=O)O)c2C1)Cc1cc(F)c(F)cc1F [Example 8, Triethylammonium (R)-7-[3-amino-4-(2,4,5-trifluorophenyl)butanoyl]-3-(trifluoromethyl)-5,6,7,8-tetrahydro-imidazo[1,5-a]pyrazine-1-carboxylate]	19.82%
210 µM	0.023 µM	166 µM					15.2 mg/mL	1.2 mg/mL	40.3 mg/mL	1.5 mg/mL	N[C@@H](CC(=O)N1CCn2c(C(F)(F)F)nc(C(=O)O)c2C1)Cc1cc(F)c(F)cc1F [Example 10, 2-Hydroxyethyl(trimethyl)ammonium (R)-7-[3-Amino-4-(2,4,5-trifluorophenyl)-butanoyl]-3-trifluoromethyl-5,6,7,8-tetrahydro-imidazo[1,5-a]pyrazine-1-carboxylate]	20.92%
